Results published in patent EP0123700A1, “Substituted picolinic acids, processes for their preparation, their use, and pharmaceutical preparations containing them” (Byk Gulden Lomberg Chemische Fabrik GmbH, priority 1983, dated 1984).

Legend:
[1] = tested on: genetisch hypertonen Ratten; assay: Antihypertensive effect: systolic blood pressure (tail cuff) in conscious genetically hypertensive rats, oral dosing once daily on four consecutive days; format: in vivo, Ratten (Stamm SHR/N/Ibm/Bm); details: for Th.W. (Therapeutische Wirksamkeit): mean of quotient over the doses of Table I
Description: Zur Bestimmung der äntihypertensiven Wirkung werden die unten aufgeführten Verbindungen in den angegebenen Dosen an vier aufeinander folgenden Tagen an je 6 Ratten (Stamm SHR/N/Ibm/Bm, ♂, 250-350 g) mit genetisch bedingtem Hochdruck (RR > 180 mmHg) täglich einmal mittels Schlundsonde verabfolgt. Die Messung des Blutdrucks erfolgt jeweils 2, 6 und gegebenenfalls 24 Stunden nach Substanzgabe.
Die Blutdruckmessung wird in einer Wärmekammer bei 36°C vorgenommen, um eine bessere Durchblutung der Schwanzarterie zu erreichen. Hierzu werden die Tiere in perforierte Lochblechkäfige verbracht und 20 - 40 Min. nach Beginn der Aufwärmung gemessen. Zur Messung des systolischen arteriellen Drucks wird eine ringförmige Manschette mit aufblasbarer Gummimembran zur Unterbindung der Durchblutung und ein ringförmiger Piezökristallaufnehmer zur Erfassung der Pulswellen auf den Schwanz aufgeschoben. Nach erfolgter Unterbindung des Blutstroms in der Schwanzarterie wird der Manschettendruck kontinuierlich reduziert. […] Pulssignale und Druckverlauf werden zur Auswertung graphisch aufgezeichnet.
Zur Gewöhnung an den Meßvorgang werden die Tiere vor Substanzprüfung 14 Tage traniniert. In der zweiten Trainingswoche werden Blutdruck-Vorwerte erhoben. Tiergruppen, die Substanz erhälten, werden gegen eine Kontrollgruppe geprüft.

[2] = tested on: weiblichen NMRI-Mäusen; assay: Oral toxicity (LD50) in mice, 14 days observation; format: in vivo; details: N=5/dose
Excerpt: Die Toxizitätsuntersuchungen werden an weiblichen NMRI-Mäusen (Körpergewicht 22 - 26 g) durchgeführt. Die Tiere (5 Tiere pro Dosis) erhalten Futter und Wasser ad libitum. Verschiedene Dosen der Substanzen werden oral verabreicht. Die Beobachtungsdauer beträgt 14 Tage. Die LD50, d.h. die Dosis bei der 50% der Tiere sterben, wird aus der Dosiswirkungskurve graphisch ermittelt.

## CCN(CC)CCCOC(=O)c1ccc(-c2ccccc2)cn1 [lfd. Nr. 4, 5-Phenylpyridin-2-carbonsäure-(3-diethylaminopropyl)-ester]
[1]; 10,0 mg/kg p.o., day 1, 2h
  BP (%-Änderungen): -4%
[1]; 10,0 mg/kg p.o., day 1, 6h
  BP (%-Änderungen): -10%
[1]; 10,0 mg/kg p.o., day 1, 24h
  BP (%-Änderungen): -6%
[1]; 10,0 mg/kg p.o., day 2, 6h
  BP (%-Änderungen): -10%
[1]; 10,0 mg/kg p.o., day 3, 6h
  BP (%-Änderungen): -13%
[1]; 10,0 mg/kg p.o., day 3, 24h
  BP (%-Änderungen): -12%
[1]; 10,0 mg/kg p.o., day 4, 2h
  BP (%-Änderungen): -13%
[1]; 10,0 mg/kg p.o., day 4, 6h
  BP (%-Änderungen): -12%
[1]; 20,0 mg/kg p.o., day 1, 2h
  BP (%-Änderungen): -3%
[1]; 20,0 mg/kg p.o., day 1, 6h
  BP (%-Änderungen): -2%
[1]; 20,0 mg/kg p.o., day 1, 24h
  BP (%-Änderungen): -6%
[1]; 20,0 mg/kg p.o., day 2, 6h
  BP (%-Änderungen): -8%
[1]; 20,0 mg/kg p.o., day 3, 6h
  BP (%-Änderungen): -14%
[1]; 20,0 mg/kg p.o., day 3, 24h
  BP (%-Änderungen): -5%
[1]; 20,0 mg/kg p.o., day 4, 2h
  BP (%-Änderungen): -6%
[1]; 20,0 mg/kg p.o., day 4, 6h
  BP (%-Änderungen): -9%
[1]; day 1 (2h, 6h and 24h Th.W. averaged), normalised to Th.W. Fusarsäure = 1, listed as 5
  Th.I. Fusarsäure = 1: 16,2
[1]; day 1, 2h
  Th.W. (Therapeutische Wirksamkeit): -11,8 %-Änderung BP / µmol/kg x 100
[1]; day 1, 6h
  Th.W. (Therapeutische Wirksamkeit): -23,7 %-Änderung BP / µmol/kg x 100
[1]; day 1, 24h
  Th.W. (Therapeutische Wirksamkeit): -19,4 %-Änderung BP / µmol/kg x 100
[1]; day 2, 6h
  Th.W. (Therapeutische Wirksamkeit): -30,2 %-Änderung BP / µmol/kg x 100
[1]; day 2, normalised to Th.W. Fusarsäure = 1, listed as 5
  Th.I. Fusarsäure = 1: 23,2
[1]; day 3 (6h and 24h Th.W. averaged), normalised to Th.W. Fusarsäure = 1, listed as 5
  Th.I. Fusarsäure = 1: 22,5
[1]; day 3, 6h
  Th.W. (Therapeutische Wirksamkeit): -43,1 %-Änderung BP / µmol/kg x 100
[1]; day 3, 24h
  Th.W. (Therapeutische Wirksamkeit): -31,2 %-Änderung BP / µmol/kg x 100
[1]; day 4 (2h and 6h Th.W. averaged), normalised to Th.W. Fusarsäure = 1, listed as 5
  Th.I. Fusarsäure = 1: 6,0
[1]; day 4, 2h
  Th.W. (Therapeutische Wirksamkeit): -34,5 %-Änderung BP / µmol/kg x 100
[1]; day 4, 6h
  Th.W. (Therapeutische Wirksamkeit): -35,5 %-Änderung BP / µmol/kg x 100

## COc1ccccc1N1CCN(CCCNC(=O)c2ccc(-c3ccccc3)cn2)CC1 [lfd. Nr. 5, 5-Phenylpyridin-2-carbonsäure-(3-[4-(2-methoxyphenyl)-piperazinyl-1]-propyl)-amid]
[2]
  LD50 p.o.: ≫ 1000 mg/kg
[1]; 6,4 mg/kg p.o., day 1, 2h
  BP (%-Änderungen): -19%
[1]; 6,4 mg/kg p.o., day 1, 6h
  BP (%-Änderungen): -14%
[1]; 6,4 mg/kg p.o., day 1, 24h
  BP (%-Änderungen): -20%
[1]; 6,4 mg/kg p.o., day 2, 6h
  BP (%-Änderungen): -12%
[1]; 6,4 mg/kg p.o., day 3, 6h
  BP (%-Änderungen): -11%
[1]; 6,4 mg/kg p.o., day 3, 24h
  BP (%-Änderungen): -5%
[1]; 6,4 mg/kg p.o., day 4, 2h
  BP (%-Änderungen): -16%
[1]; 6,4 mg/kg p.o., day 4, 6h
  BP (%-Änderungen): -24%
[1]; 25,6 mg/kg p.o., day 1, 2h
  BP (%-Änderungen): -26%
[1]; 25,6 mg/kg p.o., day 1, 6h
  BP (%-Änderungen): -20%
[1]; 25,6 mg/kg p.o., day 1, 24h
  BP (%-Änderungen): -14%
[1]; 25,6 mg/kg p.o., day 2, 6h
  BP (%-Änderungen): -12%
[1]; 25,6 mg/kg p.o., day 3, 6h
  BP (%-Änderungen): -12%
[1]; 25,6 mg/kg p.o., day 3, 24h
  BP (%-Änderungen): -3%
[1]; 25,6 mg/kg p.o., day 4, 2h
  BP (%-Änderungen): -12%
[1]; 25,6 mg/kg p.o., day 4, 6h
  BP (%-Änderungen): -22%
[1]; day 1 (2h, 6h and 24h Th.W. averaged), normalised to Th.W. Fusarsäure = 1
  Th.I. Fusarsäure = 1: 70,6
[1]; day 1, 2h
  Th.W. (Therapeutische Wirksamkeit): -89,8 %-Änderung BP / µmol/kg x 100
[1]; day 1, 6h
  Th.W. (Therapeutische Wirksamkeit): -66,9 %-Änderung BP / µmol/kg x 100
[1]; day 1, 24h
  Th.W. (Therapeutische Wirksamkeit): -82,7 %-Änderung BP / µmol/kg x 100
[1]; day 2, 6h
  Th.W. (Therapeutische Wirksamkeit): -52,8 %-Änderung BP / µmol/kg x 100
[1]; day 3 (6h and 24h Th.W. averaged), normalised to Th.W. Fusarsäure = 1
  Th.I. Fusarsäure = 1: 21,1
[1]; day 3, 6h
  Th.W. (Therapeutische Wirksamkeit): -49,3 %-Änderung BP / µmol/kg x 100
[1]; day 3, 24h
  Th.W. (Therapeutische Wirksamkeit): -20,3 %-Änderung BP / µmol/kg x 100
[1]; day 4 (2h and 6h Th.W. averaged), normalised to Th.W. Fusarsäure = 1
  Th.I. Fusarsäure = 1: 14,7
[1]; day 4, 2h
  Th.W. (Therapeutische Wirksamkeit): -66,9 %-Änderung BP / µmol/kg x 100
[1]; day 4, 6h
  Th.W. (Therapeutische Wirksamkeit): -103,9 %-Änderung BP / µmol/kg x 100

## CN(C)CCCNC(=O)c1ccc(-c2ccccc2)cn1 [lfd. Nr. 6, 5-Phenylpyridin-2-carbonsäure-(3-dimethylaminopropyl)-amid]
[1]; 6,4 mg/kg p.o., day 1, 2h, listed as 11
  BP (%-Änderungen): +2%
[1]; 6,4 mg/kg p.o., day 1, 6h, listed as 11
  BP (%-Änderungen): -1%
[1]; 6,4 mg/kg p.o., day 1, 24h, listed as 11
  BP (%-Änderungen): +10%
[1]; 6,4 mg/kg p.o., day 2, 6h, listed as 11
  BP (%-Änderungen): -14%
[1]; 6,4 mg/kg p.o., day 3, 6h, listed as 11
  BP (%-Änderungen): -10%
[1]; 6,4 mg/kg p.o., day 3, 24h, listed as 11
  BP (%-Änderungen): +4%
[1]; 6,4 mg/kg p.o., day 4, 6h, listed as 11
  BP (%-Änderungen): -10%
[1]; 25,6 mg/kg p.o., day 1, 2h, listed as 11
  BP (%-Änderungen): -7%
[1]; 25,6 mg/kg p.o., day 1, 6h, listed as 11
  BP (%-Änderungen): -9%
[1]; 25,6 mg/kg p.o., day 1, 24h
  BP (%-Änderungen): +4%
[1]; 25,6 mg/kg p.o., day 2, 6h, listed as 11
  BP (%-Änderungen): +3%
[1]; 25,6 mg/kg p.o., day 3, 6h, listed as 11
  BP (%-Änderungen): -15%
[1]; 25,6 mg/kg p.o., day 3, 24h, listed as 11
  BP (%-Änderungen): -10%
[1]; day 1 (2h, 6h and 24h Th.W. averaged), normalised to Th.W. Fusarsäure = 1, listed as 11
  Th.I. Fusarsäure = 1: -25,7
[1]; day 1, 2h
  Th.W. (Therapeutische Wirksamkeit): 0,9 %-Änderung BP / µmol/kg x 100
[1]; day 1, 6h
  Th.W. (Therapeutische Wirksamkeit): -11,8 %-Änderung BP / µmol/kg x 100
[1]; day 1, 24h
  Th.W. (Therapeutische Wirksamkeit): 39,9 %-Änderung BP / µmol/kg x 100
[1]; day 2, 6h
  Th.W. (Therapeutische Wirksamkeit): -48,0 %-Änderung BP / µmol/kg x 100
[1]; day 2, normalised to Th.W. Fusarsäure = 1, listed as 11
  Th.I. Fusarsäure = 1: 36,9
[1]; day 3 (6h and 24h Th.W. averaged), normalised to Th.W. Fusarsäure = 1, listed as 11
  Th.I. Fusarsäure = 1: 8,0
[1]; day 3, 6h
  Th.W. (Therapeutische Wirksamkeit): -49,9 %-Änderung BP / µmol/kg x 100
[1]; day 3, 24h
  Th.W. (Therapeutische Wirksamkeit): 23,6 %-Änderung BP / µmol/kg x 100
[1]; day 4 (2h and 6h Th.W. averaged), normalised to Th.W. Fusarsäure = 1, listed as 11
  Th.I. Fusarsäure = 1: 5,2
[1]; day 4, 6h
  Th.W. (Therapeutische Wirksamkeit): -36,2 %-Änderung BP / µmol/kg x 100
